Read-outs that look alike come from different tables or passages of the source. Marks after values point to notes of the source that are not given here.
Key:
[1] = Metabolic Stability in Human Hepatocytes; format: in vitro ADME; details: cryopreserved human hepatocytes, 5×10^5 viable cells/mL, 37° C.
Method: A 2.5 uL aliquot of 100 μM test compound was incubated with 247.5 uL of cryopreserved hepatocytes suspended in serum-free incubation medium at 5×10^5 viable cells/mL. The mixture was incubated at 37° C. and shaken at 500 rpm for the designated time points (0.5, 15, 30, 60, 90, or 120 min). At each time point, 25 μL aliquot of incubation mixture was transferred to 125 μL of cold acetonitrile containing internal standard, followed by centrifugation for 30 min at 3,220 g. 100 μL of supernatant was mixed with 100 μL of distilled water for analysis by LC-MS/MS. Peak areas were determined from extracted ion chromatograms and in vitro half-life (t1/2) was determined from the concentration vs time regression slope, in vitro t1/2=0.693/k. Conversion of the in vitro t1/2 (in min) into the in vitro intrinsic clearance (in vitro CLint, in μL/min/10^6 cells) is done using: in vitro CLint=kV/N.

[2] = Plasma Stability Assay (Example A3), rat plasma; format: in vitro ADME; details: 10 μM, 37° C., prodrug remaining
Text: (§1) The data is represented in the table below.

[3] = Plasma Stability Assay (Example A3), human plasma; format: in vitro ADME; details: 10 μM, 37° C., prodrug remaining
Text: as §1

[4] = Hydrolysis Assay - Condition 2 (DI Water); format: physicochemical; details: 25° C., 0.5 mM
Method: 50 uL of compound (10 mM) in DMSO was diluted into 950 uL of DI water to a final concentration of 0.5 mM. The hydrolysis kinetics were conducted at 25° C. and measured by LCMS at a certain time interval.
(§2) The corresponding LCMS chromatogram were recorded and the conversions were calculated by integration of each peak.
(§3) • 1) LCMS spectra were obtained using Agilent 1200G1956A or SHIMADZU LCMS-2020. • Standard LCMS conditions were as follows (running time 1.55 minutes): • Acidic condition: Mobile Phase A: 0.0375% TFA in water (v/v). Mobile Phase B: 0.01875% TFA in acetonitrile (v/v); Column: Kinetex EVO C18 30*2.1 mm, 5 μm. • Basic condition: Mobile Phase A: 0.025% NH3·H2O in water (v/v). Mobile Phase B: Acetonitrile; Column: Kinetex EVO C18 2.1×30 mm, 5 μm. • 2) Conversion (%)=peak area 1/(peak area 1+peak area 2)*100%, peak area 1 is the integration of hydrolyzed product, peak area 2 is the integration of starting material.

[5] = Plasma Stability Assay (Example A2), human plasma; format: in vitro ADME; details: 37° C., prodrug remaining
Method: (§4) Each test was carried out in duplicate for each time point; 0 min, 15 min, 30 min, 60 min, 120, 240 min. […]

[6] = Hydrolysis Assay - Condition 1 (SGF); format: physicochemical; details: Condition 1: SGF with pepsin pH 1.5, 37° C., 0.5 mM
Method: 50 uL of compound (10 mM) in DMSO was diluted into 950 uL of Simulated Gastric Fluid (SGF) with pepsin (pH 1.5) to a final concentration of 0.5 mM. The hydrolysis kinetics were conducted at 37° C. and measured by LCMS at a certain time interval.
as §2, §3

[7] = format: in vivo, male C57BL/6 mice; details: 323 IV 2 mg/kg, mice; for CL: marked NR (not reportable)
Method: Total fifteen male mice were used in this study with n=3 mice/time point with sparse sampling study design. Animals were administered through intravenous route with solution formulation of 323 at 2 mg/kg dose.
(§5) The extraction procedure for plasma/brain samples and the spiked plasma/brain calibration standards were identical (PMSF Stabilized Plasma and Brain used for Preparation of calibration standards): A 20 μL of study sample plasma/brain or spiked plasma/brain calibration standard was added to individual pre-labeled micro-centrifuge tubes followed by 200 μL of internal standard prepared in acetonitrile (Rosuvastatin+Cetrizine, 50 ng/mL) was added except for blank, where 200 μL of acetonitrile was added. Samples were vortexed for 5 minutes. Samples were centrifuged for 10 minutes at a speed of 4000 rpm at 4° C. Following centrifugation, 200 μL of clear supernatant was transferred in 96 well plates and analyzed using LC-MS/MS.
Brain samples were diluted (1-part of tissue: 2-part of buffer) and homogenized. The homogenate was submitted for bioanalysis and the concentrations (ng/mL) received were corrected with dilution factor (3×) and the final reported concentrations were represented in ng/g.
The plasma and brain concentration-time data of 323 and 001 were used for the pharmacokinetic analysis.

[8] = Plasma Stability Assay (Example A2), mouse plasma; format: in vitro ADME; details: for Prodrug (%): Mouse Plasma, 37° C., prodrug remaining; for Metabolite (%): mouse
Method: as §4

[9] = Pharmacokinetics of 358, single IV 2 mg/kg, plasma and brain; format: in vivo, male C57BL/6 mice; details: 358 IV 2 mg/kg, mice
Method: Total fifteen male mice were used in this study with n=3 mice/time point with sparse sampling study design. Animals were administered through intravenous route with solution formulation of 358 at 2 mg/kg dose.
The extraction procedure for plasma/brain samples and the spiked plasma/brain calibration standards were identical (PMSF Stabilized Plasma and Brain used for Preparation of calibration standards):
as §5, with “A” for “The extraction procedure for plasma/brain samples and the spiked plasma/brain calibration standards were identical (PMSF Stabilized Plasma and Brain used for Preparation of calibration standards): A”
Note: Brain samples were diluted (1-part of tissue: 2-part of buffer) and homogenized. The homogenate was submitted for bioanalysis and the concentrations (ng/mL) received were corrected with dilution factor (3×) and the final reported concentrations were represented in ng/g.
The plasma and brain concentration-time data of 358 and 001 were used for the pharmacokinetic analysis.

COc1ccc([C@@]23CCC(OP4(=O)OCC(C)(C)CO4)=C[C@@H]2N(C)CC3)cc1OC [Compound 323, 2-[[(3aS,7aS)-3a-(3,4-dimethoxyphenyl)-1-methyl-3,4,5,7a-tetrahydro-2H-indol-6-yl]oxy]-5,5-dimethyl-1,3,2λ5-dioxaphosphinane 2-oxide]
t1/2 [1]: 327 min
Prodrug (%) ([2]; 0 min): 100.00%
Prodrug (%) ([2]; 10 min): >99%
Prodrug (%) ([2]; 30 min): 95.5%
Prodrug (%) ([2]; 60 min): 82.0%
Prodrug (%) ([2]; 120 min): 58.8%
Prodrug (%) ([2]; 240 min): 34.0%
Prodrug (%) ([3]; 0 min): 100.00%
Prodrug (%) ([3]; 10 min): 86.9%
Prodrug (%) ([3]; 30 min): 70.8%
Prodrug (%) ([3]; 60 min): 52.7%
Prodrug (%) ([3]; 120 min): 27.0%
Prodrug (%) ([3]; 240 min): 9.3%
Conversion (%) ([4]; 1 min): 0%
Conversion (%) ([4]; 5 min): 0%
Conversion (%) ([4]; 30 min): 0%
Conversion (%) ([4]; 1 h): 0%
Conversion (%) ([4]; 4 h): 0%
Conversion (%) ([4]; 24 h): 0%
Prodrug (%) ([5]; 0 min): 100%
Prodrug (%) ([5]; 15 min): 76.6%
Prodrug (%) ([5]; 30 min): 64.5%
Prodrug (%) ([5]; 60 min): 38.1%
Prodrug (%) ([5]; 120 min): 12.8%
Prodrug (%) ([5]; 240 min): 1.60%
Conversion (%) ([6]; 1 min): 0%
Conversion (%) ([6]; 5 min): 0%
Conversion (%) ([6]; 30 min): 0%
Conversion (%) ([6]; 1 h): 0%
Conversion (%) ([6]; 4 h): 0%
Conversion (%) ([6]; 24 h): 0%
Brain-Kp [7]; 323: 0.07
brain concentrations quantifiable up to [7]; 323: ≤ 0.5 h
Brain concentrations (mean) ([7]; 323, 0.08 h): 22.15 ng/g
Plasma concentrations (mean) ([7]; 323, 0.08 h): 332.15 ng/mL
Brain concentrations (mean) ([7]; 323, 0.25 h): 8.97 ng/g
Plasma concentrations (mean) ([7]; 323, 0.25 h): 91.59 ng/mL
Plasma concentrations (mean) ([7]; 323, 0.5 h): 26.34 ng/mL
Brain concentrations (mean) ([7]; 323, 0.5 h, average of two values): 4.43^d ng/g
Plasma concentrations (mean) ([7]; 323, 1 h): 4.05 ng/mL
Plasma concentrations (mean) ([7]; 323, 2 h, single value, excluded from data analysis): 1.03^c ng/mL
C0 (back extrapolated concentration) ([7]; 323 in Brain): 0.03389 µg/mL
T1/2 ([7]; 323 in Brain): 10.8 min
Vss ([7]; 323 in Brain): 61.73 L/kg
CL ([7]; 323 in Brain): NR (4350.55) mL/min/kg
AUClast ([7]; 323 in Plasma): 0.096 µg·h/mL
C0 (back extrapolated concentration) ([7]; 323 in Plasma): 0.60901 µg/mL
T1/2 ([7]; 323 in Plasma): 10.2 min
Vss ([7]; 323 in Plasma): 3.25 L/kg
CL ([7]; 323 in Plasma): NR (343.84) mL/min/kg
Prodrug (%) ([8]; 0 min): 100.0%
Prodrug (%) ([8]; 15 min): >99%
Prodrug (%) ([8]; 30 min): >99%
Prodrug (%) ([8]; 60 min): 94.1%
Prodrug (%) ([8]; 120 min): 71.9%
Prodrug (%) ([8]; 240 min): 50.3%

COc1ccc([C@@]23CCC(OC(=O)OC(C)(C)C)=C[C@@H]2N(C)CC3)cc1OC [Compound 358, [(3aS,7aS)-3a-(3,4-dimethoxyphenyl)-1-methyl-3,4,5,7a-tetrahydro-2H-indol-6-yl]tert-butyl carbonate]
brain concentrations quantifiable up to [9]: ≤ 0.08 h
plasma concentrations quantifiable up to [9]: up to 0.25 h
Metabolite (%) ([8]; 0 min, 5 µM): 58.8%
Metabolite (%) ([8]; 15 min, 5 µM): 65.4%
Metabolite (%) ([8]; 30 min, 5 µM): 73.2%
Metabolite (%) ([8]; 60 min): 76.9%
Metabolite (%) ([8]; 120 min): 61.8%
Metabolite (%) ([8]; 240 min): 62.2%

COc1ccc([C@@]23CCC(OP4(=O)OCCCO4)=C[C@@H]2N(C)CC3)cc1OC [Compound 422, 2-(((3aS,7aS)-3a-(3,4-dimethoxyphenyl)-1-methyl-2,3,3a,4,5,7a-hexahydro-1H-indol-6-yl)oxy)-1,3,2-dioxaphosphinane 2-oxide]
t1/2 [1]: 366 min
Prodrug (%) ([2]; 0 min): 100.0%
Prodrug (%) ([2]; 10 min): >99%
Prodrug (%) ([2]; 30 min): >99%
Prodrug (%) ([2]; 60 min): >99%
Prodrug (%) ([2]; 120 min): 91.0%
Prodrug (%) ([2]; 240 min): 76.8%
Prodrug (%) ([3]; 0 min): 100.0%
Prodrug (%) ([3]; 10 min): 89.4%
Prodrug (%) ([3]; 30 min): 73.1%
Prodrug (%) ([3]; 60 min): 62.4%
Prodrug (%) ([3]; 120 min): 39.2%
Prodrug (%) ([3]; 240 min): 19.6%

COc1ccc([C@@]23CCC(OP4(=O)OC(C)CC(C)O4)=C[C@@H]2N(C)CC3)cc1OC (stereo partly drawn) [Compound 423, 2-(((3aS,7aS)-3a-(3,4-dimethoxyphenyl)-1-methyl-2,3,3a,4,5,7a-hexahydro-1H-indol-6-yl)oxy)-4,6-dimethyl-1,3,2-dioxaphosphinane 2-oxide]
t1/2 [1]: 57 min
Prodrug (%) ([2]; 0 min): 100.00%
Prodrug (%) ([2]; 10 min): >99%
Prodrug (%) ([2]; 30 min): >99%
Prodrug (%) ([2]; 60 min): 91.05%
Prodrug (%) ([2]; 120 min): 83.29%
Prodrug (%) ([2]; 240 min): 67.32%
Prodrug (%) ([3]; 0 min): 100.00%
Prodrug (%) ([3]; 10 min): >99%
Prodrug (%) ([3]; 30 min): >99%
Prodrug (%) ([3]; 60 min): 98.77%
Prodrug (%) ([3]; 120 min): 97.80%
Prodrug (%) ([3]; 240 min): 89.67%

Source: patent publication US20260015322A1, “DELIVERY OF THERAPEUTIC ALKALOID COMPOUNDS” (priority 2022, published 2026)
